From US20100160369A1, “S1P1 Agonists and Methods of Making And Using” (EXELIXIS, INC., priority 2008, published 2010)

How the values were obtained:
Assay type in all cases: cell-based
[1] = target: T1, S1P1 (Homo sapiens, UniProt P21453); assay: Tango β-arrestin Recruitment Assay in U2OS cells (Assay 2b); design: linker with TEV protease (N1a) cleavage site (C); conditions: Tango β-arrestin Recruitment Assay
From the text: (§1) For the Tango™ β-arrestin recruitment assay, the cytoplasmic C-terminus of S1P1 is tethered to the tTA transcriptional activator with a linker that contains a cleavage site for the N1a protease from tobacco etch virus (TEV protease). The C-terminus of the human β-arrestin2 protein is fused to TEV protease. Binding of an agonist recruits the β-arrestin-TEV fusion protein to the receptor resulting in cleavage of the linker and release of tTA to enter the nucleus and subsequently activate a tTA-dependent luciferase reporter gene.
Alternatively, U2OS cells expressing the reporter gene and S1P1 (Invitrogen) were added to the wells of a 384-well white opaque bottom assay plate (PerkinElmer) at […] per well. The cells were serum starved for 48 h in Freestyle medium (Invitrogen). Test compounds were tested at maximum concentrations of 1 μM for the agonist assay. Compounds were diluted in DMSO (10 concentration points, 3-fold each) and added to the assay plate at a 1% final DMSO concentration. The efficacy control was 1 μM S1P (Avanti). For each compound, there were duplicate assay plates and each assay plate had duplicate wells per concentration point. The plate was incubated overnight at 37° C. The GeneBLAzer β-lactamase assay reagent (Invitrogen) was added and the plates were incubated for an additional 2 h at room temperature. Fluorescence was measured using an EnVision plate reader (PerkinElmer, Waltham, Mass.) at an excitation wavelength of 409 nm and emission wavelengths of 460 nm and 530 nm. The emission intensity at each wavelength was background subtracted against wells containing medium only and the F460 nm/F530 nm ratio determined for each concentration of the test compounds. Percent activity was calculated as [(test compound ratio−DMSO ratio)/(positive control ratio−DMSO ratio)*100], where the positive control and DMSO ratios are from cells incubated with the efficacy control 1 μM S1P and 1% DMSO, respectively. The percent activities were plotted against compound concentration to determine EC50 using XLFit (IDBS).
(§2) Assay 1 is the CNG cAMP Assay as described in Biological Example 1. Assay 2a and 2b are the Tango™ β-arrestin Recruitment Assay in HEK293 and U2OS cells, respectively, as described in Biological Example 2. Assay 3a is the hS1P1R GTPγS Binding Assay as described in Biological Example 3. Assay 3b is the GTP-Eu Binding Assay as described in Biological Example 3. EC50's were measured unless otherwise noted. […] In the table, “nt” means the Compound was not tested and “no” means the compound was tested but had no measurable activity under the assay conditions employed.
Target sequence in this assay (P21453 whole entry, the tested form may be a part): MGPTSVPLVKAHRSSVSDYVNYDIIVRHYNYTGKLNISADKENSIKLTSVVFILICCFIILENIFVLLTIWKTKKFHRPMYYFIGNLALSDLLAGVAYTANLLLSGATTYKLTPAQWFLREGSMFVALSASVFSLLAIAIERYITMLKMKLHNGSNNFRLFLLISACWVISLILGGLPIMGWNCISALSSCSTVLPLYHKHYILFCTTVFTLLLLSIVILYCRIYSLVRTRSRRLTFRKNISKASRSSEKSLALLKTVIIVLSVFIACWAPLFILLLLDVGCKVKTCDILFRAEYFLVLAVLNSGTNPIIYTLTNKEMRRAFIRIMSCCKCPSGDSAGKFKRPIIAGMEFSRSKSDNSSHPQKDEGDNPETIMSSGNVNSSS
Target sequence in this assay (P32121 whole entry partner, the tested form may be a part): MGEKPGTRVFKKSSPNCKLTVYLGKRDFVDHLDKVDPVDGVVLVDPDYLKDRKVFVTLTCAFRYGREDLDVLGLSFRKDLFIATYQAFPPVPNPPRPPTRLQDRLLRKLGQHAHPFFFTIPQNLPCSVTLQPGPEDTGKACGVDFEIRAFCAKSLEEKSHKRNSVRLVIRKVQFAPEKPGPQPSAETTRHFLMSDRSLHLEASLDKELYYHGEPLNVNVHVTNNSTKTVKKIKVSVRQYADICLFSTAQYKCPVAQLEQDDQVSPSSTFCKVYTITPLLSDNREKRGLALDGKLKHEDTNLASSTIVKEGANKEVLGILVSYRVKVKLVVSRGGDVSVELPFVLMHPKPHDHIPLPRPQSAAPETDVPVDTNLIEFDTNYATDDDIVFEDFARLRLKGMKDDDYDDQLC

[2] = target: T1, S1P1; assay: Tango β-arrestin Recruitment Assay in HEK293 cells (Assay 2a); design: linker with TEV protease (N1a) cleavage site (C); host or cells: HEK293, transiently transfected; conditions: Tango β-arrestin Recruitment Assay, read-out: Assay 2a EC50
From the text: as §1
Target sequence in this assay (P21453 whole entry, the tested form may be a part): as the sequence (P21453 whole entry, the tested form may be a part) above
Target sequence in this assay (P32121 whole entry partner, the tested form may be a part): as the sequence (P32121 whole entry partner, the tested form may be a part) above
Frozen HEK293 cells transiently transfected with receptor cDNAs for S1P1 (Invitrogen) were thawed and suspended in 10 mL of Pro293a-CDM culture medium (Invitrogen) supplemented with 4 mM L-Glutamine (Invitrogen), 1× Pen/Strep (100 units/mL penicillin and 100 μg/mL streptomycin, Invitrogen) and 0.1% fatty acid free BSA (Sigma-Aldrich). Cells were added to the wells of a 384-well white opaque bottom assay plate (PerkinElmer) at 3,000-6,000 cells per well and the plate was incubated for approximately 4 h in a 37° C. incubator. Test compounds were tested at maximum concentrations of 10 μM for the agonist assays. Compounds were diluted in DMSO (10 concentration points, 3-fold each) and added to the assay plate at a 1% final DMSO concentration. For each compound, there were duplicate assay plates and each assay plate had duplicate wells per concentration point. The plate was incubated at 37° C. for 30 min. The efficacy control was 5 μM S1P (Avanti). Following agonist addition, the assay plates were incubated in a 37° C. incubator for 16-18 h. Luciferase assay reagent was added and luminescence measured in an EnVision plate reader (PerkinElmer). To determine agonist activity, percent activity was calculated as [(test compound−background)/(positive control−background)* 100], where background is the luminescence of the DMSO alone control and the positive control is the luminescence from cells incubated with the efficacy control 5 μM S1P. The percent activities were plotted against compound concentration to determine EC50 using XLFit (IDBS).
as §2

[3] = target: T1, S1P1; assay: CNG cAMP Assay (Assay 1); design: host or cells: HEK293 cells expressing the CNG channel; conditions: read-out: Assay 1 EC50
Summary of the method: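 HEK293 cells expressing CNG channel and S1P1, membrane-potential dye loaded; compounds (top 10 μM, 10-point 3-fold, 1.8% DMSO) added with 25 μM Ro 20-1724, 500 nM NECA and 10 nM S1P for 90 min. T90/T0 fluorescence (Ex 350/Em 590 nm) normalised to NECA-alone vs DMSO; EC50 fitted.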
Target sequence in this assay (P21453 whole entry, the tested form may be a part): as the sequence (P21453 whole entry, the tested form may be a part) above

EC50 ([1]; read-out: Assay 2b EC50) | SMILES | further results
≤ 100 nM | CC(O)COc1cc(Cl)c(-c2nnc(-c3cn4cc(C(F)(F)F)cc(Cl)c4n3)o2)cc1Cl (centres unmarked) [Entry 4] | 
≤ 100 nM | O=C(O)CC(=O)COc1cc(Cl)c(-c2noc(-c3cn4cc(C(F)(F)F)cc(Cl)c4n3)n2)cc1Cl [Entry 5] | 
≤ 100 nM | O=P(O)(O)OC(CO)COc1cc(Cl)c(-c2noc(-c3cn4cc(C(F)(F)F)cc(Cl)c4n3)n2)cc1Cl (centres unmarked) [Entry 9] | 
≤ 100 nM | CS(=O)(=O)COc1cc(Cl)c(-c2noc(-c3cn4cc(C(F)(F)F)cc(Cl)c4n3)n2)cc1Cl [Entry 12] | 
≤ 100 nM | CC(O)COc1cc(Cl)c(-c2nnc(-c3cn4cc(C(F)(F)F)cc(Cl)c4n3)s2)cc1Cl (centres unmarked) [Entry 13] | 
≤ 100 nM | C[C@@H](COc1cc(Cl)c(-c2noc(-c3cn4cc(C(F)(F)F)cc(Cl)c4n3)n2)cc1Cl)OP(=O)(O)O [Entry 14] | 
≤ 100 nM | NC(COc1cc(Cl)c(-c2noc(-c3cn4cc(C(F)(F)F)cc(Cl)c4n3)n2)cc1Cl)COP(=O)(O)O (centres unmarked) [Entry 15] | 
≤ 100 nM | O=C(COc1cc(Cl)c(-c2noc(-c3cn4cc(C(F)(F)F)cc(Cl)c4n3)n2)cc1Cl)C(F)(F)F [Entry 18] | 
 | CC(C)(CO)Oc1cc(Cl)c(-c2noc(-c3cn4cc(C(F)(F)F)cc(Cl)c4n3)n2)cc1Cl [Entry 26] | EC50 ([1]; relative EC50 was measured (footnote 1), read-out: Assay 2b Relative EC50): 100 to 500 nM
≤ 100 nM | OCC(O)CNc1cc(Cl)c(-c2noc(-c3cn4cc(C(F)(F)F)cc(Cl)c4n3)n2)cc1Cl (centres unmarked) [Entry 29] | 
≤ 100 nM | OCCNc1cc(Cl)c(-c2noc(-c3cn4cc(C(F)(F)F)cc(Cl)c4n3)n2)cc1Cl [Entry 30] | 
≤ 100 nM | O=C(CO)COc1cc(Cl)c(-c2noc(-c3cn4cc(C(F)(F)F)cc(Cl)c4n3)n2)cc1Cl [Entry 34] | 
≤ 100 nM | N[C@H](CO)COc1cc(Cl)c(-c2nnc(-c3cn4cc(C(F)(F)F)ccc4n3)s2)cc1F [Entry 43] | 
≤ 100 nM | CC(N)(CO)COc1cc(Cl)c(-c2nnc(-c3cn4cc(C(F)(F)F)ccc4n3)s2)cc1F (centres unmarked) [Entry 44] | 
≤ 100 nM | COc1ccc2nc(-c3nnc(-c4cc(F)c(OCC(N)CO)cc4Cl)s3)cn2c1 (centres unmarked) [Entry 45] | 
≤ 100 nM | CC(N)(CO)COc1cc(Cl)c(-c2nnc(-c3cn4cc(C(F)(F)F)cc(Cl)c4n3)s2)cc1F (centres unmarked) [Entry 46] | 

EC50 ([1]; read-out: Assay 2b EC50) | SMILES | further results
≤ 100 nM | O=C(COc1cc(Cl)c(-c2noc(-c3cn4cc(C(F)(F)F)cc(Cl)c4n3)n2)cc1Cl)COP(=O)(O)O [Entry 51] | 
≤ 100 nM | O=P(O)(O)COc1cc(Cl)c(-c2noc(-c3cn4cc(C(F)(F)F)cc(Cl)c4n3)n2)cc1Cl [Entry 52] | 
≤ 100 nM | O=P(O)(O)OCC(O)COc1cc(Cl)c(-c2noc(-c3cn4cc(C(F)(F)F)cc(Cl)c4n3)n2)cc1Cl (centres unmarked) [Entry 53] | 
≤ 100 nM | OCC(CO)NCCOc1cc(Cl)c(-c2noc(-c3cn4cc(C(F)(F)F)cc(Cl)c4n3)n2)cc1Cl [Entry 65] | 
≤ 100 nM | NC(CO)COc1cc(Cl)c(-c2nc(-c3cn4cc(C(F)(F)F)cc(Cl)c4n3)no2)cc1Cl (centres unmarked) [Example 80, 2-amino-3-[(2,5-dichloro-4-{3-[8-chloro-6-(trifluoromethyl)imidazo[1,2-a]pyridin-2-yl]-1,2,4-oxadiazol-5-yl}phenyl)oxy]propan-1-ol] | 
≤ 100 nM | NC(COc1cc(Cl)c(-c2nnc(-c3cn4cc(C(F)(F)F)cc(Cl)c4n3)s2)cc1F)COP(=O)(O)O (centres unmarked) [Example 82, 2-amino-3-[(5-chloro-4-{5-[8-chloro-6-(trifluoromethyl)imidazo[1,2-a]pyridin-2-yl]-1,3,4-thiadiazol-2-yl}-2-fluorophenyl)oxy]propyl dihydrogen phosphate] | 
≤ 100 nM | NC(CO)COc1cc(Cl)c(-c2nnc(-c3cn4cc(C(F)(F)F)ccc4n3)s2)cc1Cl (centres unmarked) [Example 100, 2-amino-3-[(2,5;dichloro-4-{5-[6-(trifluomethyl)imidazo[1,2-a]pyridin-2-yl] 1,3,4-thiadiazol-2-yl}phenyl)oxy]propan-1-ol] | 
≤ 100 nM | NC(CO)COc1cc(Cl)c(-c2nnc(-c3cn4cc(Cl)ccc4n3)s2)cc1F (centres unmarked) [Example 101, 2-amino-3-({5-chloro-4-[5-(6-chloroimidazo[1,2-a]pyridin-2-yl)-1,3,4-thiadiazol-2-yl]-2-fluorophenyl}oxy)propan-1-ol] | 
 | CC(CC(=O)O)c1ccc(-c2noc(-c3cn4cc(C(F)(F)F)cc(Br)c4n3)n2)c(Cl)c1 (centres unmarked) [Example 266, 3-(4-{5-[8-bromo-6-(trifluoromethyl)imidazo[1,2-a]pyridin-2-yl]-1,2,4-oxadiazol-3-yl}-3-chlorophenyl)butanoic acid] | EC50 [2]: 100 to 500 nM; EC50 [3]: ≤ 100 nM
 | N#CC(CC(=O)O)c1ccc(-c2noc(-c3cn4cc(C(F)(F)F)cc(Cl)c4n3)n2)c(Cl)c1 (centres unmarked) [Example 267, 3-(3-chloro-4-{5-[8-chloro-6-(trifluoromethyl)imidazo[1,2-a]pyridin-2-yl]-1,2,4-oxadiazol-3-yl}phenyl)-3-cyanopropanoic acid] | EC50 [2]: 100 to 500 nM; EC50 [3]: ≤ 100 nM
 | OCCC(O)c1ccc(-c2noc(-c3cn4cc(C(F)(F)F)cc(Cl)c4n3)n2)c(Cl)c1 (centres unmarked) [Example 272, 1-(3-chloro-4-{5-[8-chloro-6-(trifluoromethyl)imidazo[1,2-a]pyridin-2-yl]-1,2,4-oxadiazol-3-yl}phenyl)propane-1,3-diol] | EC50 [2]: 100 to 500 nM; EC50 [3]: ≤ 100 nM
 | Fc1ccc(-c2noc(-c3cn4cc(C(F)(F)F)cc(Cl)c4n3)n2)c(Cl)c1 [Example 274, 8-chloro-2-[3-(2-chloro-4-fluorophenyl)-1,2,4-oxadiazol-5-yl]-6-(trifluoromethyl)imidazo[1,2-a]pyridine] | EC50 [2]: 500 to 1000 nM; EC50 [3]: 100 to 500 nM
 | CS(=O)(=O)Cc1ccc(-c2noc(-c3cn4cc(C(F)(F)F)cc(Cl)c4n3)n2)c(Cl)c1 [Example 275, 8-chloro-2-(3-{2-chloro-4-[(methylsulfonyl)methyl]phenyl}-1,2,4-oxadiazol-5-yl)-6-(trifluoromethyl)imidazo[1,2-a]pyridine] | EC50 [2]: 100 to 500 nM; EC50 [3]: ≤ 100 nM
 | O=C(O)CCc1cc(Cl)c(-c2nnc(-c3cn4cc(C(F)(F)F)cc(Cl)c4n3)o2)cc1F [Example 282, 3-(5-chloro-4-{5-[8-chloro-6-(trifluoromethyl)imidazo[1,2-a]pyridin-2-yl]-1,3,4-oxadiazol-2-yl}-2-fluorophenyl)propanoic acid] | EC50 [2]: ≤ 100 nM; EC50 [3]: ≤ 100 nM
 | O=C(O)CCc1c(Cl)cc(-c2nc(-c3cn4cc(C(F)(F)F)cc(Cl)c4n3)no2)cc1Cl [Example 314, 3-(2,6-dichloro-4-{3-[8-chloro-6-(trifluoromethyl)imidazo[1,2-a]pyridin-2-yl]-1,2,4-oxadiazol-5-yl}phenyl)propanoic acid] | EC50 [2]: ≤ 100 nM; EC50 [3]: ≤ 100 nM
